Where “and” joins values, the source holds several entries; their conditions need not be identical. Equal values may be shown once.
Columns and labels:
heart failure (HF) rats = assay: Echocardiography in isoproterenol-induced heart failure (HF) rats; assay type: in vivo, Wistar rats
Description: Adult male Wistar rats (each weighted about 240-270 g, and were purchased from BioLASCO Taiwan Co., Ltd) were used in this study. […] Heart failure (HF) rats received one subcutaneous injection of isoproterenol at a dosage of 100 mg/Kg. They were housed in an animal room under temperature control (24-25° C.) and 12:12 light-dark cycle. Standard laboratory rat chow and tap water were available ad libitum. […] A midline thoracotomy was then performed, and the heart was removed, weighed, and dissected from each rat for further analysis. Echocardiograms were performed before the animals were euthanized, using HP Sonos 5500 system with a 15-6L probe (6 to 15 MHz, SONOS 5500, Agilent Technologies, Palo Alto, Calif.) or Vivid I ultrasound cardiovascular system (GE Healthcare, Haifa, Israel). LV end-diastolic diameter (LVEDD), LV end-systolic diameter (LVESD), and wall thickness were measured from M-mode tracings. The LV fractional shortening percentage was calculated as ([LVEDD-LVESD]/LVEDD)×100. The LV ejection fraction was calculated by Techholz's formula. All quantitative data are expressed as the mean±S.E.M, and un-paired T test was used to compare the differences between groups.

TBI rats = assay: Skilled forelimb reaching task in TBI rats; assay type: in vivo, Sprague-Dawley rats; details: 30 mg/Kg intravenous at 0-7 days after TBI
Text: Adult male Sprague-Dawley rats (each weighted about 250-300 g, and were purchased from BioLASCO Taiwan Co., Ltd) were used in this study. The rats were randomly allocated into three groups: (i) TBI+test Compound (e.g., Compound 1 or valproic acid (VPA)), (ii) TBI+VEH (i.e., vehicle-treated TBI rats), and (iii) Sham (sham-operated control). They were housed in an animal room under temperature control (24-25) and 12:12 light-dark cycle. Standard laboratory rat chow and tap water were available ad libitum. All animal experiments were carried out in accordance with the guidelines established by the Institutional Animal Care and Utilization Committee of the Taipei Medical University (Taipei, Taiwan, R.O.C.).
Surgical anesthesia was induced by ketamine (90 mg/kg body weight) and xylazine (10 mg/kg body weight), which were administered intraperitoneally (ip). Following anesthesia, the animals were secured in a stereotaxic frame and ventilated mechanically. A cortical contusion was produced on the exposed cortex using a controlled impactor device TBI-0200 TBI Model system (Precision Systems and Instrumentation). […]
All test animals were trained to criterion on the skilled forelimb reaching task. […] During the initial days of training, limb preference was determined and placement of pellets was adjusted to favor the use of the preferred forelimb. […]

MCAO rats = assay: Infarction volume (TTC staining) in middle cerebral artery occlusion (MCAO) rats; assay type: in vivo; details: 30 mg/Kg intravenous, N=5 per group, 3 days
Description: (§1) In this example, effects of compounds of this invention were varified using ischematic stroke animal model.
(§2) The bilateral common carotid arteries were isolated through a neck incision and occluded with aneurysm clips. […] After 60 minutes, rats were re-anesthetized, the carotid clips were removed, and the neck incision was closed. The rats were returned to their home cage after fully recovered from anesthesia. The sham surgery is similar to the MCAO surgery, which included the step of opening the dura, yet without the steps of isolating, clipping, or coagulating neither the MCA nor carotid vessel.
Compound 1 was dissolved in 5% ethanol, 35% polyethylene glycol and 60% normal saline at a concentration of 15 mg/ml. […]
Medicaments prepared in accordance with steps described in Example 4.2 were given to the 3 groups of MCAO rats of Example 4.1 (N=5, for each group), and the infraction area of these animals were then stained and estimated by similar steps described in Examples 3.4 and 3.5, and results are illustrated in FIGS. 7A and 7B. […] In another example, after induction of MACO, rats were infused with compound 1 at 30 min, 2 hrs, 4 hrs, and 24 hrs, respectively; and the infarction volume was calculated 3 days after MCAO.

[1] = tested on: cAMP response element-binding protein (CREB); assay: Western blot analysis of CREB in brain of MCAO rats; assay type: in vivo; details: 30 mg/Kg intravenous, RA, LA, RP, LP brain areas
Description: as §1, §2
Compound 1 was dissolved in 5% ethanol, 35% polyethylene glycol and 60% normal saline at a concentration of 15 mg/ml. All test animals received intravenous injection of either compound 1 (30 mg/Kg), valproic acid (VPA, 30 mg/kg) or vehicle (5% ethanol, 35% polyethylene glycol and 60% normal saline) at 0-7 days after MCAO.
Collected protein samples were mixed with Laemli sample buffer. […] The Immunoblottingquantification was fulfilled via Quantity OneTMsoftware (Bio-Rad).
Level of CREB phosphorylaiton was measured by western blot ananlysis in accordance with steps described in Example 4.3. […]

[2] = HF rats, after treatment, 100 mg/kg oral gavage once daily for 7 days, mean±S.E.M
[3] = HF rats, before treatment (baseline of the group), n = 7, mean±S.E.M

O=C(/C=C/c1ccc2c(ccn2S(=O)(=O)c2ccccc2)c1)NO [compound 1, 3-(1-benzensulfonyl-1H-indol-5-yl)-N-hydroxy-acrylamide]
Fraction shortening (heart failure (HF) rats; [2]): 47 ± 3 %
IVSd (heart failure (HF) rats; [2]): 1.3 ± 0.1 mm
LVEDd (heart failure (HF) rats; [2]): 4.6 ± 0.2 mm
LVESd (heart failure (HF) rats; [2]): 2.4 ± 0.2 mm
Ejection fraction (heart failure (HF) rats; HF rats, after treatment, 100 mg/kg oral gavage once daily for 7 days, mean±S.E.M, 100 mg/kg): 81% and 81 ± 3 %
Ejection fraction (heart failure (HF) rats; [3]): 68 ± 2%
Fraction shortening (heart failure (HF) rats; [3]): 38 ± 3%
IVSd (heart failure (HF) rats; [3]): 1.4 ± 0.1 mm
LVEDd (heart failure (HF) rats; [3]): 5.4 ± 0.4 mm
LVESd (heart failure (HF) rats; [3]): 3.4 ± 0.3 mm

NNc1nncc2ccccc12 [hydralazine, reference compound]
Ejection fraction (heart failure (HF) rats; HF rats (isoproterenol 150 mg/kg s.c.), after 10 mg/kg i.p. once daily for 7 days, data not shown): 76±10%
Ejection fraction (heart failure (HF) rats; HF rats (isoproterenol 150 mg/kg s.c.), starting value that the ejection fraction increased from, data not shown): 59±4%

CCCC(CCC)C(=O)O [VPA, valproic acid]
Behaviour function deficits (skilled forelimb reaching task), FIG. 6 (TBI rats): significantly improve the behaviour function deficits caused by TBI
Infarction volume, FIG. 7A (MCAO rats): significant reduction of infarction volume
Up-regulation of CREB (p-CREB and t-CREB), FIG. 8 [1]: up-regulation of cAMP response element-binding protein (CREB)
